Test results published in US5508450A, “Benzopyran derivatives” (Ono Pharmaceutical Co., Ltd., priority 1989, dated 1996).
Where a name gives a salt, the structure may show the parent alone.

What was measured:
[1] = test system: advanced glycosylation end products in arterial wall connective tissue protein; details: administered to diabetic rats; Brownlee et al., Science 232, 1629 (1986); cited from earlier work
Maillard reaction = details: Brownlee et al., Science 232, 1629 (1986); cited from earlier work
[2] = test system: lipid peroxide formation in rat liver homogenate; test: Antioxiding effect: inhibitory activity against formation of peroxidized fat (lipid peroxide by TBA method); assay type: biochemical, Male Sprague Dawley rat; details: 200 μM FeCl2, 10% rat liver homogenate, 37° C., 1 hr
Protocol: The antioxiding effect of the compounds of the present invention has confirmed by the screening system which examines inhibitory activity against formation of peroxidized fat mentioned below. Male Sprague Dawley rat was fasted for 12 hrs (overnight) before experiments, and was anesthetized with ether. Rat liver was perfused with ice-cold 0.9% NaCl via the portal vein, and promptly excised. 10% Liver homogenates were prepared in ice-cold 1.15% KCl. The reaction was started by adding 200 μM FeCl2 to the liver homogenate ([…]), and incubated at 37° C. for 1 hr. Lipid peroxide was measured by the TBA method according to the method of Ohkawa (See Analytical Biochemistry,95, 351 (1979)). The compounds of the present invention were added before incubation. And the efficacy thereof was examined and calculated IC50 values thereof.

[3] = test system: Lysozyme (dimer formation with fructose); test: Inhibitory activity on Maillard reaction: formation of lysozyme dimer (lysozyme + fructose, SDS-PAGE, densitometer); assay type: biochemical; details: lysozyme 10 mg/ml, fructose 100 mM, 0.2M sodium phosphate buffer pH 7.4, 37° C., 3 days
Protocol: The inhibitory activity on Maillard reaction of the compounds of the present invention has confirmed by the screening system mentioned below. Lysozyme (10 mg/ml) and fructose (100 mM) were dissolved in 0.2M sodium phosphatic buffer solution (PH 7.4). The solution was incubated at a temperature of 37° C. for 3 days. A given volume of the reaction solution was separated using SDS-PAGE by the electrophoresis. After the electrophoresis, the SDS-PAGE was dyed by 0.2% Coomassie Brilliant Blue R-250 and then the dimer was determined by densitometer. The compounds of the present invention were added before incubation and the inhibitory activity of them against the formation of the dimer was examined in various concentrations and IC50 values were calculated.

Row | SMILES | inhibition of diabetes-induced accumulation of advanced glycosylation end products in arterial wall connective tissue protein [1] | inhibition of Maillard reaction in vitro (Maillard reaction) | IC50 [2] [µM] | IC50 [3] [µM]
1 | N=C(N)NN [aminoguanidine] | inhibits diabetes-induced accumulation of advanced glycosylation end products in arterial wall connective tissue protein | inhibits Maillard reaction in vitro | – | –
2 | Cc1c(C)c2c(c(C)c1O)CCC(C)(CCNC(=N)NN)O2 (stereo not drawn) [Example 3, 1-amino-3-[2-(6-hydroxy-2,5,7,8-tetramethyl-3,4-dihydro-2H-benzo[1,2-b]pyran-2-yl)ethyl]guanidine hydroiodide] | – | – | 0.54 | 360
3 | Cc1c(C)c2c(c(C)c1O)CCC(C)(CCOC(=O)/C=C/c1ccc(NC(=N)N)cc1)O2 (stereo not drawn) [1 (h), 2-(6-hydroxy-2,5,7,8-tetramethyl-3,4-dihydro-2H-benzo[1,2-b]pyran-2-yl)ethyl4-quanidinocinnamate hydrochloride] | – | – | 0.9 | 53
4 | Cc1c(C)c2c(c(C)c1O)CCC(C)(CCNC(=O)c1ccc(NC(=N)N)cc1)O2 (stereo not drawn) [Example 2, N-[2-(6-hydroxy-2,5,7,8-tetramethyl-3,4-dihydro-2H-benzo[1,2-b]pyran-2-yl)ethyl]-4-guanidinobenzamide hydrochloride] | – | – | 0.66 | 450
5 | Cc1c(C)c2c(c(C)c1O)CCC(C)(CCOC(=O)c1ccc(N(C)C(=N)N)cc1)O2 (stereo not drawn) [1 (m), 2-(6-hydroxy-2,5,7,8-tetramethyl-3,4-dihydro-2H-benzo[1,2-b]pyran--2-yl)ethyl 4-(1-methylquanidino)-benzoate hydrochloride] | – | – | 0.6 | 440
6 | Cc1c2c(c3ccccc3c1O)OC(C)(CCOC(=O)c1ccc(CNC(=N)N)cc1)CC2 (stereo not drawn) [1 (j), 2-(2,5-dimethyl-6-hydroxy-3,4-dihydro-2H-naphtho[1,2-b]pyran-2-yl)ethyl 4-quanidinomethylbenzoatehydrochloride] | – | – | 0.46 | 60
